Reference: PMC9495348, “Polyfunctionalized α-Phenyl-tert-butyl(benzyl)nitrones: Multifunctional Antioxidants for Stroke Treatment” (Antioxidants, 2022)

Legend:
soybean lipoxygenase = molecular target: T1, soybean lipoxygenase (Glycine max, UniProt P08170); assay: In vitro inhibition of soybean LOX; format: biochemical; details: for IC50: soybean LOX, sodium linoleate 0.1 mM
T1 construct: purchased Aldrich Chemical Co. Milwaukee, WI, (USA)
T1 sequence (P08170 1-839): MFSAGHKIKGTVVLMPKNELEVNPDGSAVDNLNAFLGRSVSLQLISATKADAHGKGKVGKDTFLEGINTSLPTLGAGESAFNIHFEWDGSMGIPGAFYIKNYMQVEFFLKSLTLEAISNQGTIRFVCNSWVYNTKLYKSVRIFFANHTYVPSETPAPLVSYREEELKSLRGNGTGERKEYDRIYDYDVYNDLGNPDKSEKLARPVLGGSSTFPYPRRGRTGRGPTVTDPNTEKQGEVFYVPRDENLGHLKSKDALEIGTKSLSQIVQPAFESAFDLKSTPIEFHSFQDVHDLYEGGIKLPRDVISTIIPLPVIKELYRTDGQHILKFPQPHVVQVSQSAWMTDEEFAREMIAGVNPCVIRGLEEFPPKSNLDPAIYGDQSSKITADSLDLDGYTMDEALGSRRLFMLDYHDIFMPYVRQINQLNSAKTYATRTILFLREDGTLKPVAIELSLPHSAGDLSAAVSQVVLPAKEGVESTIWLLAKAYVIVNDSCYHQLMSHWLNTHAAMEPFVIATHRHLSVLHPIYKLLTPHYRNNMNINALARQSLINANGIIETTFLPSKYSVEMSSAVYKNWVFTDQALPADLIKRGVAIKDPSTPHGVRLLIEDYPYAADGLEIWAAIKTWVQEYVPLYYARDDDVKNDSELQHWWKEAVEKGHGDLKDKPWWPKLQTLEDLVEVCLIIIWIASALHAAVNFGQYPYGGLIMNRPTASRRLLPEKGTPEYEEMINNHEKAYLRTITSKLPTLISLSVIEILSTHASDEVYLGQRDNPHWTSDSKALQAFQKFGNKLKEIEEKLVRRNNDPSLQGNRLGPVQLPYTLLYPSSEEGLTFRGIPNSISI
Protocol: The in vitro study was performed as previously described. The compounds were incubated at room temperature with sodium linoleate (0.1 mM) and 0.2 mL of soybean lipoxygenase solution (1/9 × 10^–4 w/v in phosphate buffer saline). The method was based on the conversion of sodium linoleate to 13-hydroperoxylinoleic acid, which was detected by measuring absorbance at 234 nm. […] To determine the IC50 values, serial dilutions of compounds were used. Blank determination served as a negative control.

[1] = ABTS+ decolorization assay in ethanolic solution; details: compounds assayed at 100 µM; n.a. = not active
[2] = DPPH radical-scavenging assay; details: compounds assayed at 100 µM, DPPH 70 µM, 90 min; no = no activity
Protocol: The assay was performed as previously described by incubating compounds at a concentration of 100 µM in the presence of 2,2-diphenyl-1-picrylhydrazyl radical (DPPH, 70 µM) in methanol for 90 min, protected from sun light. The absorbance at 517 nm was then determined using a Synergy™ H4 microplate reader (BioTek Instruments, Inc., Winooski, VT, USA). The experiments were performed in triplicate, and the blank (compound without DPPH) was substracted. The percentage of DPPH free radicals was calculated using the equation DPPH free radicals (%) = ((A0 − A1)/A0) × 100, where A0 is the absorbance of MeOH and A1 is the absorbance of the compound. Trolox and resveratrol were used as positive controls.

[3] = Competition of the tested compounds with DMSO for hydroxyl radicals; details: compounds assayed at 100 µM; n.a. = not active; no = no activity
[4] = test system: SH-SY5Y neuroblastoma cells; assay: Neuroprotection against okadaic acid, MTT cell viability; format: cell-based; details: okadaic acid 20 nM for 20 h, compounds 0.3–10 µM
Aβ1–42 = molecular target: T2, Aβ1–42 (Homo sapiens, UniProt P05067); assay: Inhibition of Aβ1–42 aggregation, Thioflavin-T assay; format: biochemical; details: 10 µM compound and 1.5 µM Aβ1–42, ThT assay
T2 construct: HFIP-pretreated Aβ1–42 peptide Merck Millipore, Darmstadt, Germany; purchased Merck Millipore, Darmstadt, Germany
T2 sequence (P05067 672-713): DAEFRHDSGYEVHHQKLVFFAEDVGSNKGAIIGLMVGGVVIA
Protocol: Thioflavin-T (ThT) assay was performed to investigate the effect of the compounds on the aggregation of Aβ1–42 (HFIP-pretreated Aβ1–42 peptide Merck Millipore, Darmstadt, Germany). Prior to the incubations, 1 mM Aβ1–42 peptide stock solution in DMSO was diluted in 150 mM HEPES buffer (pH = 7.4, 150 mM NaCl) to obtain a concentration of 7.5 μM. Subsequently, 20 µL of Aβ1–42 ([…]) was mixed with the compounds (10 µM, final concentration) on black-walled 96-well plates and diluted with ThT solution (14.3 μM stock solution in HEPES-buffered solution; 10 μM final concentration). The final volume of the mixture was 100 μL, and the DMSO concentration was always 3% (v/v). Each sample was prepared in four technical replicates. ThT fluorescence (λex = 440 nm, λem = 490 nm) was measured using a microplate reader (Synergy™ H4, BioTek Instruments, Inc., Winooski, VT, USA) for 36–48 h. Inhibition of Aβ1–42 aggregation was expressed as the percent inhibition (% inh = (1 − Fi/F0) × 100), where Fi is the increase in fluorescence of compound-treated Aβ1–42, and F0 is the increase in fluorescence of non-treated Aβ1–42.

[5] = Inhibition of linoleic acid peroxidation (ILPO) induced by AAPH; details: compounds assayed at 100 µM; n.a. = not active
[6] = compounds assayed at 100 µM, n.a. = not active, no = no activity under the experimental conditions

| Compound | inhibition at 100 µM (soybean lipoxygenase; [6]) [%] | ABTS+ (%) [1] [%] | DPPH [2] | OH Scav. Capacity (%) [3] | IC50 (soybean lipoxygenase) [µM] | neuroprotective effect (augmented OA-reduced cell viability) [4] | inhibition at 10 µM (Aβ1–42) [%] | LOX Inhibition (%) (soybean lipoxygenase; [6]) | ILPO (%) [5] [%] |
| --- | --- | --- | --- | --- | --- | --- | --- | --- | --- |
| C#CCN1CCN(CCCOc2ccc(/C=[N+](\[O-])Cc3ccccc3)cc2)CC1 [nitrone 7, (Z)-N-Benzyl-1-(4-(3-(4-(prop-2-yn-1-yl)piperazin-1-yl)propoxy)phenyl) methanimine oxide] | 27.2 | 28 | 0 |  |  |  |  |  |  |
| CC(C)(C)/[N+]([O-])=C/c1ccccc1OCCCN1CCCCC1 [nitrone 6, (Z)-N-tert-Butyl-1-(2-(3-(piperidin-1-yl)propoxy)phenyl)methanimine oxide] | 39 |  | 0 | 13% |  |  |  |  |  |
| CC(C)(C)/[N+]([O-])=C/c1ccc(OCCCN2CCCCC2)cc1 [nitrone 2, (Z)-N-tert-Butyl-1-(4-(3-(piperidin-1-yl)propoxy)phenyl)methanimine oxide] |  |  | 0 | 54% |  |  |  |  |  |
| [O-]/[N+](=C\c1ccc(OCCCN2CCCCC2)cc1)Cc1ccccc1 [nitrone 1, (Z)-N-Benzyl-1-(4-(3-(piperidin-1-yl)propoxy)phenyl)methanimine oxide] |  | 27 | 0 | 7% | 60 | statistically significant at 10 µM | 42.2 ± 5.7 |  |  |
| C#CCN1CCN(CCCOc2cccc(/C=[N+](/[O-])Cc3ccccc3)c2)CC1 [nitrone 9, (E)-N-Benzyl-1-(3-(3-(4-(prop-2-yn-1-yl)piperazin-1-yl)propoxy)phenyl)methanimine oxide] |  |  | 1 | 81% | 100 |  |  |  |  |
| C#CCN1CCN(CCCOc2cccc(/C=[N+](\[O-])C(C)(C)C)c2)CC1 [nitrone 10, (Z)-N-tert-Butyl-1-(3-(3-(4-(prop-2-yn-1-yl)piperazin-1-yl)propoxy)phenyl) methanimine oxide] |  | 13 | 0 | 20% |  |  |  | no | 31 |
| C#CCN1CCN(CCCOc2ccccc2/C=[N+](\[O-])C(C)(C)C)CC1 [nitrone 12, (Z)-N-tert-Butyl-1-(2-(3-(4-(prop-2-yn-1-yl)piperazin-1-yl)propoxy)phenyl) methanimine oxide] | 25 | 13 |  | 9.8% |  |  |  |  | 31 |
| [O-]/[N+](=C\c1ccccc1OCCCN1CCCCC1)Cc1ccccc1 [nitrone 5, (Z)-N-Benzyl-1-(2-(3-(piperidin-1-yl)propoxy)phenyl)methanimine oxide] |  | 19 | 0 | 9% | 10 |  |  |  |  |
| CC(C)(C)/[N+]([O-])=C/c1cccc(OCCCN2CCCCC2)c1 [nitrone 4, (Z)-N-tert-Butyl-1-(3-(3-(piperidin-1-yl)propoxy)phenyl)methanimine oxide] | 37 | 23 | 0 | 54% |  |  |  |  | 45 |
| [O-]/[N+](=C\c1cccc(OCCCN2CCCCC2)c1)Cc1ccccc1 [nitrone 3, (Z)-N-Benzyl-1-(3-(3-(piperidin-1-yl)propoxy)phenyl)methanimine oxide] |  | 31 | 2 |  |  |  |  |  | 29 |
| Cc1c(C)c2c(c(C)c1O)CCC(C)(C(=O)O)O2 (centres unmarked) [Trolox, reference compound] |  | 91 |  | 88% |  |  |  |  | 93 |
| C#CCN1CCN(CCCOc2ccc(/C=[N+](\[O-])C(C)(C)C)cc2)CC1 [nitrone 8, (Z)-N-tert-Butyl-1-(4-(3-(4-(prop-2-yn-1-yl)piperazin-1-yl)propoxy)phenyl) methanimine oxide] | 23.3 | 10 | 0 | 78% |  |  |  |  |  |
| CC(C)(C)/[N+]([O-])=C/c1ccccc1 [PBN, α-phenyl-N-tert-butylnitrone, reference compound] | 23 | 5 | no | no |  |  |  |  | 11 |
